Results reported in patent publication US7666587B2, “Method of screening test substances for treating or preventing a disease mediated by plasma cells” (priority 2002, dated 2010).
Residues, ends and D or L forms follow the SMILES beside them. *: point of attachment. Cbz = O=C(OCc1ccccc1)*

How the values were obtained:
XBP-1 [1] = experiment: Metabolic pulse labelling and immunoprecipitation of endogenous XBP-1 proteins; format: cell-based, mouse
Method: Mouse embryonic fibroblasts and ES cells lacking IRE1 activity (IRE1α−/− or IRE1α, IRE1β−/−) and PERK−/−fibroblasts were cultured as previously described (Harding et al., “Regulated Translation Initiation Controls Stress-Induced Gene Expression in Mammalian Cells,” Mol. Cell 6:1099-1108 (2000); and Urano et al., “Coupling of Stress in the Endoplasmic Reticulum to Activation of JNK Protein Kinases by Transmembrane Protein Kinase IRE1,” Science 287:664-666 (2000), which are hereby incorporated by reference in their entirety). Cells were treated with tunicamycin (2.5 μg/ml, Calbiochem), thapsigargin (100 nM, Sigma), dithiothreitol (2 mM, Sigma) or the proteasome inhibitor MG132 (25 μM, Calbiochem) as indicated. To prepare B-cell blasts, cells were teased from crushed adult mouse spleen and cultured in the presence of 25 μg/ml E. coli lipopolysaccharide.
Newly synthesized proteins were labeled in vivo with ^35S-methionine and ^35S-cysteine (500 μCi/ml, Translabel, ICN Biochemicals). After removal of the labeling media cells were washed and incubated in complete media for cold-chase. […] Incorporation of radiolabel was quantified by phosphoimager analysis. In calculating the relative synthesis rates of 54 kDa XBP-1 and 33 kDa XBP-1 the relative incorporation of label was corrected for differences in the content of methionine (7:6) and cysteine (4:3) predicted for the two proteins. […]

XBP-1 [2] = experiment: XBP-1 immunoblot during in vitro differentiation of B-cells to plasma cells; format: cell-based; settings: mouse spleen cells, 25 μg/ml E. coli lipopolysaccharide
Method: (§1) Mouse embryonic fibroblasts and ES cells lacking IRE1 activity (IRE1α−/− or IRE1α, IRE1β−/−) and PERK−/−fibroblasts were cultured as previously described (Harding et al., “Regulated Translation Initiation Controls Stress-Induced Gene Expression in Mammalian Cells,” Mol. Cell 6:1099-1108 (2000); and Urano et al., “Coupling of Stress in the Endoplasmic Reticulum to Activation of JNK Protein Kinases by Transmembrane Protein Kinase IRE1,” Science 287:664-666 (2000), which are hereby incorporated by reference in their entirety). Cells were treated with tunicamycin (2.5 μg/ml, Calbiochem), thapsigargin (100 nM, Sigma), dithiothreitol (2 mM, Sigma) or the proteasome inhibitor MG132 (25 μM, Calbiochem) as indicated. […]
(§2) XBP-1 proteins in whole cell extracts were detected by immunoblot of 9% PAGE-SDS using a rabbit polyclonal serum directed to residues 97-267 common to both 54 kDa and 33 kDa XBP-1 proteins (sc-7160, Santa Cruz Biotechnology). XBP-1 proteins in transfected cells were detected by a monoclonal antibody to the FLAG epitope tag (Kodak-IBI). CREB and CHOP were detected as described previously (Harding et al., “Regulated Translation Initiation Controls Stress-Induced Gene Expression in Mammalian Cells,” Mol. Cell 6:1099-1108 (2000), which is hereby incorporated by reference in its entirety).

hsp-4::gfp = hsp-4::gfp transcriptional reporter induction in C. elegans (UPR); format: in vivo; settings: gut and hypodermis; plates containing 5 μg/ml tunicamycin
Description: A 1.1 kilobase (Kb) fragment of C. elegans genomic DNA immediately 5′ of the predicted initiation ATG of hsp-4 was amplified by PCR and ligated in-frame with GFP in the plasmid pPD95.75 (gift of Andy Fire, Carnegie Institute of Washington). The hsp-4::gfp(zcIs4) V strain was generated by co-injecting the hsp-4::gfp clone with the lin-15 rescuing plasmid, pSK1 (Clark et al., “The Caenorhabditis elegans Locus Lin-15, a Negative Regulator of a Tyrosine Kinase Signaling Pathway, Encodes Two Different Proteins,” Genetics 137:987-997 (1994), which is hereby incorporated by reference in its entirety), into lin-15(n765ts) animals and then integrating the extrachromosomal array with ultraviolet/trimethylpsoralen (UV/TMP) treatment. The F2 progeny of ethylmethane sulphonate (EMS)-treated hsp-4::gfp(zcIs4)V animals were screened for mutants with high levels of GFP expression to identify mutations that constitutively induce the UPR. Several mutations were recovered, including upr-1(zc6)X, which induced a high level of GFP expression in the posterior gut. To isolate mutations that blocked hsp-4::gfp induction, the F2 progeny of EMS-treated hsp-4::gfp(zcIs4) V; upr-1(zc6)X animals were screened for mutants with a reduced GFP signal. The mutations were mapped using standard methods. […]

XBP-1 [3] = experiment: Immunoblot of FLAG-tagged XBP-1 in transfected HEK 293T cells; format: cell-based, human; settings: HEK 293T cells transfected with XBP-1^up
Method: as §1, §2

CC(C)C[C@@H](C=O)NC(=O)[C@H](CC(C)C)NC(=O)[C@H](CC(C)C)NC(=O)OCc1ccccc1 [proteasome inhibitor, MG132] (Cbz-Leu-Leu-Leu-aldehyde)
levels of 33 kDa XBP-1 protein (XBP-1 [1]; mouse fibroblasts, MG132 25 μM): increased further

bacterial lipopolysaccharide
induction of 54 kDa XBP-1 protein (XBP-1 [2]): induced

tunicamycin
hsp-4::gfp expression (hsp-4::gfp): strongly induced
expression of FLAG-tagged 54 kDa XBP-1 protein (XBP-1 [3]): expressed high levels of FLAG-tagged 54 kDa protein
accumulation of endogenous 54 kDa XBP-1 (XBP-1 [1]; pulse-labeled wildtype cells, tunicamycin 2.5 μg/ml): accumulated to high levels
